Measured values taken from article PMC4026384, “Antibacterial Activity of THAM Trisphenylguanide against Methicillin-Resistant Staphylococcus aureus” (PLoS ONE, 2014).
In brackets after ≈: the same amount, converted by molar mass. Entries after “also recorded” stand apart in the source; their conditions may differ. Where two headings read alike, the source gives them in different places.

Assays:
[1] = test system: E. faecalis MSU#10; assay: Bacterial viability assay; type: cell-based, Enterococcus faecalis; conditions: Enterococcus faecalis, 1 h
Experimental: (§1) Supplementary file pone.0097742.s003.doc: Table S1 Bacterial viability assays. Bacteria were grown at 37°C to mid-log phase (OD600 ∼0.4). The bacteria were diluted to approximately 10^4 to 10^5 colony forming units (CFU) per milliliter and added to a solution of phosphate buffered saline (PBS, 16 mM phosphate, 0.14 M NaCl, pH 7.2) containing the compound at varied concentrations. Samples were incubated at 37°C for one hour and then plated on Luria Bertani (LB) agar at appropriate dilutions in PBS. The plates were incubated overnight at 37°C and colonies enumerated the following day. IC50s were calculated from graphs of CFU as a function of compound concentration. Chlorhexidine was used as a positive control. […] (DOC) Click here for additional data file.
(§2) Bacterial viability assays. Bacteria were grown at 37°C to mid-log phase (OD600 ~0.4). The bacteria were diluted to approximately 10^4 to 10^5 colony forming units (CFU) per milliliter and added to a solution of phosphate buffered saline (PBS, 16 mM phosphate, 0.14 M NaCl, pH 7.2) containing the compound at varied concentrations. Samples were incubated at 37°C for one hour and then plated on Luria Bertani (LB) agar at appropriate dilutions in PBS. The plates were incubated overnight at 37°C and colonies enumerated the following day. IC50s were calculated from graphs of CFU as a function of compound concentration. Chlorhexidine was used as a positive control.

[2] = test system: E. faecalis V583; assay: Bacterial viability assay; type: cell-based, Enterococcus faecalis; conditions: Enterococcus faecalis, 1 h, one hour in PBS, CFU, ± SEM
Experimental: as §1, §2

[3] = test system: MRSA; assay: Time-to-kill (kill curve) assay; type: cell-based, Staphylococcus aureus
Experimental: (§3) Bacteria were cultured to mid-log phase (OD600 ∼0.4) in LB media with shaking and then diluted to approximately 10^4 to 10^5 CFU/mL. Bacteria were then treated with compound at the MIC, 2×MIC, and 4×MIC (as determined by the MIC assays). Over the course of 24 hours, bacteria were incubated at 37°C and aliquots removed at various time intervals, diluted, and plated on LB agar. Plated bacteria were incubated overnight at 37°C and CFU/mL were calculated for each time interval.

[4] = test system: Staphylococcus aureus RN4220; assay: Minimum bactericidal concentration; type: cell-based; conditions: S. aureus RN4220; MHB; median; 3-log reduction of viable bacteria
Experimental: (§4) Minimum inhibitory concentration (MIC) values were determined for those compounds showing the most antibacterial activity in the bacterial viability assays (see Supplemental Materials) against each of the strains of bacteria using a microdilution method in 96 well plates with LB media according to guidelines published by the British Society for Antimicrobial Chemotherapy. Minimum bactericidal concentrations (MBC) were determined by plating 10 µL and 100 µL from each well showing no signs of growth after overnight incubation of the MIC plates and determining the minimum concentration showing a 3-log reduction of viable bacteria. MIC and MBC were also determined in cation-adjusted Mueller-Hinton broth (Hardy Diagnostics, Santa Maria, CA) for some compounds and strains.

[5] = test system: Escherichia coli (strain K91); assay: Minimum bactericidal concentration; type: cell-based; conditions: E. coli K91; MHB; median; 3-log reduction of viable bacteria
Experimental: as §4

[6] = test system: MRSA strain LAC, USA300; assay: Minimum inhibitory concentration (microdilution); type: cell-based, Staphylococcus aureus
Experimental: as §4

[7] = test system: MRSA USA300; assay: Bacterial viability assay; type: cell-based, Staphylococcus aureus; conditions: Staphylococcus aureus, 1 h, one hour in PBS, CFU, ± SEM
Experimental: as §1, §2

[8] = Cell toxicity assay (MTS); type: cell-based, human; conditions: human, MTS assay, concentration which killed 50% of the cells
Experimental: The HaCaT cell line was grown in Epilife medium (MEPI500Ca) with human keratinocyte growth supplement (Invitrogen, San Diego, CA). Both types of cells were harvested using Tryspin/EDTA and diluted to 1×10^5 cells per well in a 96-well plate. Ten concentrations covering five orders of magnitude were tested with six replicates per concentration. […] MTS/PMS solution (Promega, Madison, WI) was added to the wells and absorbance was measured at 490 nm two to four hours later. Data was analyzed using GraphPad Prism version 5.0 (GraphPad Software, La Jolla, CA) using a variable slope inhibition dose response curve.

[9] = test system: MRSA strain LAC, USA300; assay: Minimum bactericidal concentration; type: cell-based, Staphylococcus aureus; conditions: MHB, median, 3-log reduction of viable bacteria
Experimental: as §4

[10] = test system: MRSA; assay: Cytoplasmic leakage & bacteriolysis assay; type: cell-based, Staphylococcus aureus; conditions: for change in A260 of culture supernatant (cytoplasmic leakage): 4×MIC (8 mg/L), within the first 30 minutes, versus untreated controls; for number of viable cells (CFUs) during the leakage assay: over the 3 hour period
Experimental: Bacteria were cultured to mid-log phase (OD600 ∼0.4) in LB media with shaking. Bacteria were then harvested and resuspended in PBS to a concentration of ∼10^8 CFU/mL. […] Bacteria were monitored over time for cytoplasmic leakage via A260 measurements and for cell viability. For A260 readings, sample aliquots were centrifuged for 5 min at 10,000×g at room temperature to remove cellular debris. Viability was monitored by determining the CFU/mL during the first 3 hours post treatment as described above for the kill curve assays.

[11] = test system: E. coli; assay: Time-to-kill (kill curve) assay; type: cell-based, Escherichia coli
Experimental: as §3

[12] = Staphylococcus aureus, MRSA USA300, LB media, median of at least 3 determinations, read-out: MIC
[13] = MDA-MB-231 breast cancer cells (ATCC HTB-26), MDA-231

SMILES	IC50 [2] [µM]	MBC [4] [µg/mL]	MBC [5] [µg/mL]	MIC ([6]; MRSA USA300, MHB, median) [µg/mL]	MIC [6, 12] [µg/mL]	IC50 [7] [µM]	CC50 ([8]; HaCaT keratinocytes) [µg/mL]	CC50 [8, 13] [µg/mL]	MBC [9] [µg/mL]	further results
[H]/N=C(\N/C(=N/[H])NCCCCCCNC(=N)NC(=N)Nc1ccc(Cl)cc1)Nc1ccc(Cl)cc1 [Chlorhexidine, chlorhexidine, reference compound]	16 ± 6	0.89 (≈ 1.76 µM)	0.44 (≈ 0.87 µM)	0.67 (≈ 1.33 µM)	1 (≈ 1.98 µM)	13	1.9 (≈ 3.76 µM)	2.6 (≈ 5.14 µM)	0.89 (≈ 1.76 µM)	IC50 [1]: 14 ± 6 µM; time by which bactericidal activity was seen ([3]; 1× to 4×MIC): ≤ 24 h; change in A260 of culture supernatant (cytoplasmic leakage) [10]: immediate increase in A260; change in A260 of culture supernatant (cytoplasmic leakage) ([10]; listed as chlorhexidine): significant increase in A260; number of viable cells (CFUs) during the leakage assay [10]: no significant reductions in CFUs; number of viable cells (CFUs) during the leakage assay ([10]; listed as chlorhexidine): no significant reduction in CFUs; time after which no viable cells remained ([11]; 2 mg/L): 6 h; reduction in CFU/mL ([11]; 2 mg/L, within 4 hours of treatment): > 3 log
N=C(NCCCCCCNc1nc(NCCCCCCNC(=N)Nc2ccccc2)nc(NCCCCCCNC(=N)Nc2ccccc2)n1)Nc1ccccc1 [THAM-3ΦG, Trishexylaminomelamine trisphenylguanide]	65 ± 1	2 (≈ 2.57 µM)	16 (≈ 20.6 µM)	1 (≈ 1.29 µM)	2 (≈ 2.57 µM)	3.9 ± 0.5	14 (≈ 18 µM)	7.6 (≈ 9.77 µM)	1 (≈ 1.29 µM)	IC50 ([1]; E. faecalis MSU#10, one hour in PBS, CFU, ± SEM, read-out: IC50): 2.8 ± 0.6 µM; reduction in CFU/mL ([3]; 4×MIC, within 4 hours post treatment): 3 log; time after which no viable cells remained ([3]; at the MIC): 24 h; MIC ([6]; Staphylococcus aureus, against MRSA, as stated in the abstract, read-out: MIC): ~1 µg/mL (≈ 1.29 µM); change in A260 of culture supernatant (cytoplasmic leakage) ([10]; listed as THAM-3ФG): significant increase in A260; also recorded: immediate increase in A260; number of viable cells (CFUs) during the leakage assay ([10]; listed as THAM-3ФG): no significant reductions in CFUs; time to kill all the cells ([11]; 4×MIC (32 mg/L)): 24 h; reduction in CFU/mL ([11]; 4×MIC (32 mg/L), only after 4 hours of treatment): > 3 log
